Data taken from US20250241985A1, “NANOLIPOSOME COMPOSITIONS AND METHODS OF TREATING STROKE” (United States Government As Represented By The Department …, priority 2020, published 2025).

Assays:
[1] = tested on: human brain microvascular endothelial cells (HBMVECs); experiment: Viability of human brain microvascular endothelial cells under physoxia/hypoxia, with or without medin (calcein-AM, flow cytometry); format: cell-based; details: medin 5 μM, 20 hours; for cell viability under hypoxic condition: hypoxia (1% oxygen)
Method: (§1) Methods. Recombinant medin was expressed in Lemo 21 (DE3) cells using POPINS-medin (Karamanova N, et al. J Am Heart Assoc 2020; 9:e014810) and confirmed to have >95% purity by SDS-PAGE. GM1L was prepared from phosphatidylcholine, cholesterol and monosialoganglioside (molar ratios 70:25:5) using lipid hydration method (Karamanova N, et al. J Am Heart Assoc 2020; 9:e014810). Primary human brain microvascular ECs (Lonza, passages 4-8) were exposed for 20 hours to 4 different treatments (vehicle control, medin 5 μM, medin 5 μM+GM1L 300 μg/ml or GM1L 300 μg/ml) under two aerobic conditions: physoxia (5% oxygen) or hypoxia (1% oxygen). Cell viability was assessed using calcein-AM fluorescence (based on principle of intact esterases in viable cells that releases fluorescent calcein) using flow cytometry (measurements expressed relative to control ECs exposed to room air). Gene expression of antioxidant enzymes heme-oxygenase 1 (HO1), NADPH quinone dehydrogenase (NQO1) and superoxide dismutase 1 (SOD1) were measured separately by qPCR on ECs.
Cell viability was assessed using calcein-AM fluorescence using flow cytometry. Measurements are expressed relative to control HBMVECs exposed to room air.

[2] = tested on: HO-1, NQO1 and SOD1; experiment: Gene (qPCR) and protein expression of antioxidant enzymes in endothelial cells; format: cell-based, human; details: medin 5 μM, 20 hours
Method: as §1
Nrf2 is a transcription factor that is a master regulator of production of antioxidant enzymes and protective mechanisms against hypoxic/ischemic stress and inflammatory stress.

[3] = tested on: stroke injury, preclinical models; details: 150 mg/kg of free monosialoganglioside in saline; cited from earlier work

medin: 50-amino acid amyloidogenic peptide; recombinant, expressed in Lemo 21 (DE3) cells (RLDKQGNFNAWVAGSYGNDQWLQVDLGSSKEVTGIITQGARNFGSVQFVA; Medin; UniProt Q08431 268-317, looked up)
cell viability under hypoxic condition [1]: more so
cell viability under hypoxic condition ([1]; listed as Medin): significant additive adverse effect
cell viability under physoxic condition ([1]; physoxia (5% oxygen)): reduced viability
antioxidant enzyme gene expression versus control [2]: did not elicit a change

monosialoganglioside
reduction in infarct volume, prior study [3]: 6.8%
